Reference: US9511070B2, “Heterocyclyl carboxamides for treating viral diseases” (NOVADRUG, LLC, priority 2012, dated 2016)
“Also recorded” adds a separate entry of the source.

Tests used:
JFH-1 HCV = conditions: viral titer at 5 μM or 15 μM compared to untreated control
Text: In vitro assay for anti-HCV efficacy. HCV studies typically involve infected patients and chimpanzees. However, recently, a robust HCV infection system was developed with cells derived from the Huh-7 human hepatoma cell line. It is based on the unique JFH-1 HCV consensus cDNA derived from an HCV patient. Using reverse genetics, the infectious virus can be rescued from this HCV clone. The recovered viable JFH virus can be passaged serially in Huh-7 cells. For this reason, this system is amenable for evaluating the activity of test compound for their anti-HCV efficacy.
Briefly, 6×10^3 Huh7-1 cells are incubated overnight in each well of collagen-coated BioCoat 96-well plates (BD Biosciences, Bedford, Mass.) in 0.2 ml 10% medium composed of Dulbecco's modified Eagle's medium supplemented with 10% fetal bovine serum. Subsequently, at 2 day intervals, the cultures are replenished with fresh 0.2 ml 10% medium. After the cultures become confluent, they continue to be replenished at 2 day intervals with fresh 0.2 ml 10% medium that also includes 1% dimethyl sulfoxide (DMSO). After 20 days of these replenishments, the Huh7-1 cultures are incubated with fresh 1% medium (same as 10% medium except that the serum level is 1%) containing HCV at a multiplicity of infection (MOI) of 0.05 focus forming units (ffu)/cell. The HCV (JFH-lwt Huh7) stock titer is 1.5×10^5 ffu/mL. The next day (day 1 post-infection) and 2 days later (day 3 post-infection) the media are replenished with fresh 1% medium containing the test compounds dissolved in DMSO. On the 5th day of treatment with the compounds, cell lysates are collected for RNA isolation and Real Time-quantitative Reverse Transcription Polymerase Chain Reaction (RT-qPCR) and culture media are collected for cytotoxicity analysis.
Total RNA is isolated from cells by the guanidine thiocyanate method using standard protocols. One μg RNA is used for cDNA synthesis using TaqMan reverse transcription reagents (Applied Biosystems, Foster City, Calif.) followed by real-time PCR using an Applied Biosystems 7300 real-time thermocycler. Thermal cycling consists of initial denaturation of 10 min at 95° C. followed by 40 cycles of denaturation (15 s at 95° C.) and annealing/extension (1 m at 60° C.). HCV and human glyceraldehyde-3-phosphate dehydrogenase (GAPDH) RNA levels are determined relative to a standard curve of serial dilutions of plasmid containing JFH-1 HCV or GAPDH cDNA. The PCR primers used to detect GAPDH and HCV are: GAPDH (NMX002046) 5′-[…]-3′(SEQ ID NO: 16) (sense) and 5′-[…]-3′(SEQ ID NO: 17) (anti-sense) JFH-1 HCV (AB047639) 5′-[…]-3′(SEQ ID NO: 18) (sense) and 5′-[…]-3′(SEQ ID NO: 19) (anti-sense).

HIV-Bal [1] = test: HIV entry (real time RT-PCR of HIV LTR in pre-treated PBMCs); type: cell-based, HIV-1; conditions: 10 μM or 25 μM; PBMCs pre-treated 1 h and 4 h
Text: The following primers are used to amplify HIV transcripts: HIV LTR, Forward 5′-[…] (SEQ ID NO: 1) and Reverse 5′-[…] (SEQ ID NO: 2) and GAPDH—Forward 5′-[…] (SEQ ID NO: 3) and Reverse 5′-[…] (SEQ ID NO: 4). GADPH is used as endogenous control.

HIV-Bal [2] = test: HIV reverse transcription assay (2LTR circles in infected PBMCs); type: cell-based, HIV-1; conditions: 72 h post-infection; in comparison with vehicle (DMSO)
Procedure: HIV reverse transcription assay. Compounds described herein inhibit 2LTR circles. Stimulated PBMCs are infected with HIV-Bal (2 ng/mL per 10^6 cells) for 5 h. PBMCs are then treated with compounds at desired concentrations and AZT (control) for 72 h post-infection. The cells are then washed three times with media and genomic DNA is prepared from samples using DNeasy Blood and Tissue Kit (Qiagen). For real time PCR analysis, the following primers are used to amplify 2LTR circles (by-products of reverse transcription): Forward 5′-[…] (SEQ ID NO: 5) and Reverse 5′-[…] (SEQ ID NO: 6). […] All results represent two or three independent experiments each performed in quadruplicates; *=p<0.05, **=p<0.01, ***=p<0.001 in comparison with vehicle ([…]).

HIV-Bal [3] = test: HIV genomic DNA integration (ALU-PCR in infected PBMCs); type: cell-based, HIV-1; conditions: 72 h post-infection; in comparison with vehicle (DMSO)
Procedure: HIV Genomic DNA Integration. […] Stimulated PBMCs are infected with HIV-Bal (2 ng/mL per 10^6 cells) for 5 h. The PBMCs are then treated with compounds at desired concentrations and AZT (control) for 72 h post-infection. The cells are then washed three times with media. Genomic DNA is prepared from samples using DNeasy Blood and Tissue Kit (Qiagen). ALU-PCR is performed followed by real time PCR to quantify integrated viral genome. The following primers are used to amplify HIV transcripts: HIV LTR, Forward 5′-[…] (SEQ ID NO: 1) and Reverse 5′-[…] (SEQ ID NO: 2) and GAPDH—Forward 5′-[…] (SEQ ID NO: 3) and Reverse 5′-[…] (SEQ ID NO: 4). GADPH is used as endogenous control.

HIV-Bal [4] = test: HIV transcription (Rev, Gag and Env transcripts in infected PBMCs); type: cell-based, HIV-1; conditions: 72 h post-infection; in comparison with vehicle (DMSO)
Procedure: HIV transcription. […] Stimulated PBMCs are infected with HIV-Bal (2 ng/mL per 10^6 cells) for 4-6 h. PBMCs are then treated with compounds at desired concentrations and AZT (control) for 72 h post-infection. The cells are then washed three times with media and genomic RNA is prepared from samples using RNEasy MiniKit (Qiagen). Real time RT-PCR is performed to detect mature viral early (Rev) and late transcripts (Gag and Env). The following primers are used to amplify HIV transcripts: Rev, Forward 5′-[…] (SEQ ID NO: 7) and Reverse 5′-[…] (SEQ ID NO: 8); Env, Forward 5′-[…] (SEQ ID NO: 9) and Reverse 5′-[…] (SEQ ID NO: 10); Gag, Forward 5′-[…] (SEQ ID NO: 11) and Reverse 5′-[…] (SEQ ID NO: 12); GAPDH, Forward 5′-[…] (SEQ ID NO: 3) and Reverse 5′-[…] (SEQ ID NO: 4). GADPH is used as endogenous control.

[5] = tested on: Bovine Viral Diarrhea Virus strain NADL; test: Anti-BVDV efficacy, cytopathic (CPE) assay in Bovine Turbinate cells (MTT); type: cell-based; conditions: cell survival at 10 μM compared to untreated control; TABLE 4(a)
Procedure: Assay for Anti-BVDV efficacy. Bovine Turbinate (BT) cells maintained as monolayers in disposable cell culture labware are used for the antiviral efficacy test. Prior to testing, host cell cultures are seeded onto the 96-well cell culture plates and used approximately 48 hours after seeding. […] The growth medium (GM) and maintenance medium (MM) include Dulbecco's Modified Eagle Media (DMEM) with L-glutamine (ATCC #30-2002), 10% Horse serum and penicillin/streptomycin (10,000 units of penicillin and 10,000 μg of streptomycin per mL, Life Technologies #15140-122 or similar) for a final concentration of 100 units penicillin and 100 μg streptomycin in the medium. Bovine Viral Diarrhea Virus strain NADL from BSLI high-titer virus stock is used. Prior to use, aliquots of the stock virus are removed and thawed from a −70° C. freezer. The BVDV is diluted in a maintenance medium (MM) to obtain 0.1 Multiplicity of Infection (MOI). Cytopathic (CPE) assay. CPE refers to degenerative changes in BT tissue culture induced by BVDV as a consequence of its multiplication. BT cell cultures are washed with PBS, and 100 μL aliquots of MM are added to the cells and incubated in a CO2 incubator for 2 hours. After incubation, the MM is removed; the cells washed again with PBS and overlaid with 100 μL of the different concentrations of test compounds. The plates are incubated in a CO2 incubator for 48 to 72 hours. […] This assay is a colorimetric assay that measures the activity of enzymes that reduce MTT to the purple color formazan dye. CPE is confirmed using an Inverted Compound Microscope.

Q: What does the source list for `CC#CC(=O)N1CCC(C(=O)Nc2cccc(-c3cc4ccccc4[nH]3)c2)CC1` [Example 57]?
A: HCV Antiviral Activity (JFH-1 HCV): ++ (“++” corresponds to ≦60% viral titer at 5 μM); effect on HIV entry (HIV-Bal [1]): did not have an effect on HIV entry; inhibition of HIV reverse transcription (2LTR circles) (HIV-Bal [2]): significantly inhibits HIV reverse transcription; inhibition of HIV viral integration (HIV-Bal [3]): significantly inhibits viral integration at each concentration; also recorded: significantly inhibits HIV viral integration; inhibition of HIV transcription (Rev, Gag, Env) (HIV-Bal [4]): significantly inhibits viral transcription at each concentration; also recorded: significantly inhibits HIV transcription; BVDV Antiviral Activity [5]: +++ (“+++” corresponds to ≧75 cell survival at 10 μM)
